Source: patent US20040097566A1, “2-Substituted thiazolidinone and oxazolidinone derivatives for the inhibition of phosphatases and the treatment of cancer” (priority 2001, published 2004)
“Also recorded” adds a separate entry of the source.

How the values were obtained:
[1] = tested on: pancreatic cancer cell line BX-PC-3; test: MTT assay, human pancreatic cancer cells; assay type: cell-based; settings: concentrations in the range of 10^−7-10^−5 M or higher, FIGS. 3, 18
Source text: (§1) The anti-cancer activity of some of the compounds described herein have been tested in one type of such in vitro assay, as described in the examples herein, using a microculture assay with 3-(4,5-dimethylthiazol-2-yl)-2,5-diphenyltetrazolium bromide (“MTT”). This assay has an advantage over in vivo assay in that results are obtained within a week as opposed to several months. The assay can be carried out in 96-well microtiter plates. The MTT assay is based on the production of a dark blue formazan product by dehydrogenase in the mitochondria of live tumor cells after exposure to drug for 6 days [M. C. Alley, D. A. Scudiero, A. Monks, M. L. Hursey, M. J. Czerwinski, D. L. Fine, B. J. Abbout, J. G. Mayo, R. H. Shoemaker and M. R. Boyd, Cancer Res., 48, 589, 1988]. Thus, only live cells are stained and can be measured at 595 nm. Anti-cancer activity can be reported as percent of the tumor cell growth in the presence of compound at a defined dose compared to control/vehicle treated tumor cells. The results of some such screening assays are given in Examples 162a and 162b, and in FIGS. 2, 3, and 15-18.
(§2) The following human cancer cell lines were used to detect anti-cancer activity in the compounds of the invention.
The pancreatic cancer cell line BX-PC-3 was used to detect anti-pancreatic cancer activity.
(§3) Cell lines were purchased from American Type Culture Collection (ATCC).
(§4) The cancer cell cultures were grown as recommended by the ATTC manuals. A549 cells and BX-PC-3 were grown in DME Dulbecco's modified Eagle's medium containing 4500 mg/L glucose; 4 mM L-glutamine; 10 U/ml Pen-G; 10 mcg/ml […] and 10% fetal calf serum (FCS). PC-3 and MDA-MB468 cells were grown in RPMI medium 1640 containing 2 mM L-glutamine; 10 U/ml Pen-G; 10 mcg/ml Streptomycin and 10% FCS. Cells were kept at 6% CO2 and 37° C. Cells were seeded on day zero in 96-well format tissue culture plates at suitable densities the day before starting treatment, in the media indicated above.
(§5) On day one, the compounds of the invention were added to the culture media of growing cells, containing 10% FCS. The cell media contained the compounds of the invention at one of six concentrations: […], 5×10^−8, 1×10^−7, 5×10^−7, 1×10^−6, and 1×10^−5M. 0.1% DMSO was used as vehicle control, and never exceeded 0.1% final concentration. On day four the media was removed and replaced with fresh media containing the compounds of the invention and FCS.
(§6) The assay is based on the cleavage of the yellow tetrazolium salt MTT to purple formazan crystals by dehydrogenase activity in active mitochondria. This conversion only occurs in living cells with intact/functional mitochondria.
(§7) On day five 10 μl of 5 mg/ml MTT dye are added to each well containing a cell culture. Cells are incubated for additional 4 hours at 6% CO2 and 37° C. Reaction is then stopped by adding 100 μl/well of a solubilization solution consisting of 10% Sodium Dodecyl Sulfate (SDS) and 10 mM HCl On day 6 the formazan crystals formed are solubilized and the resulting colored solution is quantified using a scanning multiwell spectrophotometer at a wavelength of 595 nm.

[2] = tested on: prostate cancer cell line PC-3; test: MTT assay, human prostate cancer cells; assay type: cell-based; settings: concentrations in the range of 10^−7-10^−5 M or higher, FIGS. 2, 16
Source text: as §1, §2
The prostate cancer cell line PC-3 was used to detect […]
as §3, §4, §5, §6, §7

[3] = tested on: non-small-cell lung cancer cell line A549; test: MTT assay, human non-small-cell lung cancer cells; assay type: cell-based; settings: concentrations in the range of 10^−7-10^−5 M or higher, FIGS. 3, 15
Source text: as §1, §2
The non-small-cell lung cancer cell line A549 was used to detect anti-lung cancer activity
as §3, §4, §5, §6, §7

[4] = tested on: breast cancer cell line MDA-MB468; test: MTT assay, human breast cancer cells; assay type: cell-based; settings: concentrations in the range of 10^−7-10^−5 M or higher, FIGS. 2, 17
Source text: as §1, §2
The breast cancer cell line MDA-MB468 served to detect anti-breast cancer activity.
as §3, §4, §5, §6, §7

tumor cells (PC3) = test: Solid prostate cancer tumors in athymic nude mice, intraperitoneal treatment; assay type: in vivo; settings: PC3 s.c. in athymic nude mice; i.p. every other day; compound 43 20mg/kg, compound 81 20mg/kg and 60mg/kg; FIGS. 20, 21
Experimental: (§8) Four to six week-old male athymic nude mice (Harlan) were housed under sterile conditions in a fixed 12-12-hr artificial light-dark cycle, and maintained on a standard rodent diet provided ad libitum. Animals were allowed two days to acclimate in this experimental environment prior to the initiation of the study.
(§9) Groups of animals were injected subcutaneously with tumor cells (H460 or PC3). Prior to the injection, the sterile tumor cells were at a logarithmic growth phase and were washed twice with PBS, counted and resuspended in sterile saline at 5-50 million cells per ml. As soon as solid tumors were discernible, the animals were sorted into treatment groups with equal average tumor volume. Animals were treated every other day intraperitoneally with a final volume of 5 ml/kg. Tumor volume was measured once a week for the duration of the study.
Experiment I: Treatment of solid prostate cancer tumors
Study 1—Treatment groups(n=6/group):

tumor cells (H460) = test: Solid non-small-cell lung cancer tumors in athymic nude mice, intraperitoneal treatment; assay type: in vivo; settings: H460 s.c. in athymic nude mice, i.p. every other day, compound 81 20mg/kg, FIG. 22
Experimental: as §8, §9
Experiment II: Treatment of solid non-small-cell lung cancer tumors

**Q.** For `O=C1N=C(N2CCOCC2)S/C1=C\c1cccc(-c2cc(F)c(O)c(C34CC5CC(CC(C5)C3)C4)c2)c1` [Compound 1, 5-[3-(3-Adamantan-1-yl-4-hydroxy-5-fluoro-phenyl)benzylidene]-2-morpholin-4-yl-thiazol-4-one], which “anticancer cell activity / killing of pancreatic cancer cells” value [1] is on record?
**A.** kill significant percentages of the cells; also recorded: strong anticancer all activity

**Q.** And the “anticancer cell activity / killing of prostate cancer cells” value [2]?
**A.** kill significant percentages of the cells; also recorded: strong anticancer cell activity

**Q.** And the “anticancer cell activity / killing of non-small-cell lung cancer cells” value [3]?
**A.** kill significant percentages of the cells; also recorded: strong anticancer all activity

**Q.** What about the “anticancer cell activity / killing of breast cancer cells” value [4] of the same molecule?
**A.** kill significant percentages of the cells; also recorded: strong anticancer cell activity

**Q.** What about the melting point of the same molecule?
**A.** 293 to 295 °C

**Q.** What does the source list for `O=C1N=C(N2CCOCC2)SC1Cc1cccc(-c2cc(F)c(O)c(C34CC5CC(CC(C5)C3)C4)c2)c1` (stereo not drawn) [Compound 43, 5-[3-(3-Adamantan-1-yl-4-hydroxy-5-fluoro-phenyl)benzyl]-2-morpholin-4-yl-thiazol-4-one]?
**A.** anticancer cell activity / killing of pancreatic cancer cells [1]: kill significant percentages of the cells; also recorded: strong anticancer all activity; anticancer cell activity / killing of prostate cancer cells [2]: kill significant percentages of the cells; also recorded: strong anticancer cell activity; anticancer cell activity / killing of non-small-cell lung cancer cells [3]: kill significant percentages of the cells; also recorded: strong anticancer all activity; anticancer cell activity / killing of breast cancer cells [4]: kill significant percentages of the cells; also recorded: strong anticancer cell activity; growth of solid human prostate cancer tumors (tumor cells (PC3)): significantly retarded the growth; also recorded: significantly slowed the growth; melting point: 227 to 229 °C

**Q.** Which results are given for `O=C1N=C(N2CCCC2)SC1Cc1cccc(-c2cc(F)c(O)c(C34CC5CC(CC(C5)C3)C4)c2)c1` (stereo not drawn) [Compound 81]?
**A.** anticancer cell activity / killing of pancreatic cancer cells [1]: kill significant percentages of the cells; anticancer cell activity / killing of prostate cancer cells [2]: kill significant percentages of the cells; anticancer cell activity / killing of non-small-cell lung cancer cells [3]: kill significant percentages of the cells; anticancer cell activity / killing of breast cancer cells [4]: kill significant percentages of the cells; growth of non-small cell lung cancer tumors (tumor cells (H460)): significantly retarded the growth; also recorded: significantly slowed the growth; growth of solid human prostate cancer tumors (tumor cells (PC3)): significantly retarded the growth; also recorded: significantly slowed the growth; melting point: 152 to 154 °C

**Q.** What does the source list for `COc1cc(-c2ccc(O)c(C34CC5CC(CC(C5)C3)C4)c2)cc(/C=C2\SC(N3CCOCC3)=NC2=O)c1O` [Compound 84, 5-[3-(3-Adamantan-1-yl-4-hydroxy-phenyl)-5-methoxy-6-hydroxy-benzylidene]-2-morpholin-4-yl-thiazol-4-one]?
**A.** anticancer cell activity / killing of pancreatic cancer cells [1]: kill significant percentages of the cells; anticancer cell activity / killing of prostate cancer cells [2]: kill significant percentages of the cells; anticancer cell activity / killing of non-small-cell lung cancer cells [3]: kill significant percentages of the cells; anticancer cell activity / killing of breast cancer cells [4]: kill significant percentages of the cells; melting point: 310 to 312 °C

**Q.** For `O=C1N=C(N2CCOCC2)S/C1=C\c1cc(-c2ccc(O)c(C34CC5CC(CC(C5)C3)C4)c2)c(O)cc1O` [Compound 104, 5-[3-(3-Adamantan-1-yl-4-hydroxy-phenyl)-4,6-dihydroxy-benzylidene]-2-morpholin-4yl-thiazol-4-one], which melting point is on record?
**A.** 306 to 310 °C

**Q.** Which melting point does the source give for `O=C1N=C(N2CCC2)S/C1=C\c1cccc(-c2cc(F)c(O)c(C34CC5CC(CC(C5)C3)C4)c2)c1` [Compound 108] here?
**A.** 154 to 157 °C

**Q.** With `O=C1N=C(N2CCOCC2)SC1Cc1cccc(-c2ccc(O)c(C34CC5CC(CC(C5)C3)C4)c2)c1` (stereo not drawn) [Compound 135, 5-(3′-Adamantan-1-yl-4′-hydroxy-biphenyl-3-ylmethyl)-2-morpholin-4-yl-thiazol-4-one] as the molecule, how does the “anticancer cell activity / killing of pancreatic cancer cells” value [1] read?
**A.** kill significant percentages of the cells

**Q.** And the “anticancer cell activity / killing of prostate cancer cells” value [2]?
**A.** kill significant percentages of the cells

**Q.** What about the “anticancer cell activity / killing of non-small-cell lung cancer cells” value [3] of the same molecule?
**A.** kill significant percentages of the cells

**Q.** What about the “anticancer cell activity / killing of breast cancer cells” value [4] of the same molecule?
**A.** kill significant percentages of the cells

**Q.** Which “anticancer cell activity / killing of pancreatic cancer cells” value [1] does the source give for `CCC(C)(C)c1cc(-c2cccc(CC3SC(N4CCOCC4)=NC3=O)c2)ccc1O` (stereo not drawn) [Compound 151, 5-[3′-(1,1-Dimethyl-propyl)-4′-hydroxy-biphenyl-3-ylmethyl]-2-morpholin-4-yl-thiazol-4-one] here?
**A.** kill significant percentages of the cells

**Q.** And the “anticancer cell activity / killing of prostate cancer cells” value [2]?
**A.** kill significant percentages of the cells

**Q.** And the “anticancer cell activity / killing of non-small-cell lung cancer cells” value [3]?
**A.** kill significant percentages of the cells

**Q.** And the “anticancer cell activity / killing of breast cancer cells” value [4]?
**A.** kill significant percentages of the cells

**Q.** And the melting point?
**A.** 74 to 77 °C

**Q.** For `CCC(C)(C)c1cc(-c2ccc(F)c(/C=C3\SC(N4CCOCC4)=NC3=O)c2)ccc1O` [Compound 152, 5-[3′-(1,1-Dimethyl-propyl)-4-fluoro-4′-hydroxy-biphenyl-3-ylmethylene]-2-morpholin-4-yl-thiazol-4one], which “anticancer cell activity / killing of pancreatic cancer cells” value [1] is on record?
**A.** kill significant percentages of the cells

**Q.** What about the “anticancer cell activity / killing of prostate cancer cells” value [2] of the same molecule?
**A.** kill significant percentages of the cells

**Q.** What about the “anticancer cell activity / killing of non-small-cell lung cancer cells” value [3] of the same molecule?
**A.** kill significant percentages of the cells

**Q.** And the “anticancer cell activity / killing of breast cancer cells” value [4]?
**A.** kill significant percentages of the cells

**Q.** For `CCC(C)(C)c1cc(-c2cccc(CC3SC(N4CCOCC4)=NC3=O)n2)ccc1O` (stereo not drawn) [Compound 155, 5-{6-[3-(1,1-Dimethyl-propyl)-4-hydroxy-phenyl]-pyridin-2ylmethyl}--2-morpholin-4-yl-thiazol-4-one], which “anticancer cell activity / killing of pancreatic cancer cells” value [1] is on record?
**A.** kill significant percentages of the cells

**Q.** And the “anticancer cell activity / killing of prostate cancer cells” value [2]?
**A.** kill significant percentages of the cells

**Q.** What about the “anticancer cell activity / killing of non-small-cell lung cancer cells” value [3] of the same molecule?
**A.** kill significant percentages of the cells

**Q.** And the “anticancer cell activity / killing of breast cancer cells” value [4]?
**A.** kill significant percentages of the cells
